ChEMBL document CHEMBL5260810, “Inhibition of bromodomain-containing protein 9 for the prevention of epigenetically-defined drug resistance” (Bioorg Med Chem Lett, 2017)

Assays:
AMO1 = assay: Cytotoxicity against human AMO1 cells measured after 8 days; format: functional, cell-based; details: AMO1, 192 h
[1] = biological target: Adenosine receptor A2a (Homo sapiens) (UniProt P29274); assay: Displacement of [3H]-CGS 21680 from human recombinant adenosine A2A receptor at 10 uM after 120 mins by scintillation counting analysis relative to control
Chain of Adenosine receptor A2a (Homo sapiens) (P29274 whole entry): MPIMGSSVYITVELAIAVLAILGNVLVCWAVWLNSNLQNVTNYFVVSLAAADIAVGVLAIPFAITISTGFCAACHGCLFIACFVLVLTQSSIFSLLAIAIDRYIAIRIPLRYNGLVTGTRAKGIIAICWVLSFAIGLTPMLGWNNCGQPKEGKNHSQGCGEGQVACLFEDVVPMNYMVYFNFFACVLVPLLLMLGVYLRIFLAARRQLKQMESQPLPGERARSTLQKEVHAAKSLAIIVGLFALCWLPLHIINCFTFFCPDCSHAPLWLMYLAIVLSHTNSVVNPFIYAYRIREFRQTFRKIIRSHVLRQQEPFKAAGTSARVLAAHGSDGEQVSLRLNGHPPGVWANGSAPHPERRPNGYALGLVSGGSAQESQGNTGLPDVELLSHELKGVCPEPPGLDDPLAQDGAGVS

[2] = biological target: T1, Adenosine receptor A1 (Homo sapiens) (UniProt P30542); assay: Displacement of [3H]-DPCPX from human recombinant adenosine A1 receptor at 10 uM after 60 mins by scintillation counting analysis relative to control
T1 sequence (whole entry): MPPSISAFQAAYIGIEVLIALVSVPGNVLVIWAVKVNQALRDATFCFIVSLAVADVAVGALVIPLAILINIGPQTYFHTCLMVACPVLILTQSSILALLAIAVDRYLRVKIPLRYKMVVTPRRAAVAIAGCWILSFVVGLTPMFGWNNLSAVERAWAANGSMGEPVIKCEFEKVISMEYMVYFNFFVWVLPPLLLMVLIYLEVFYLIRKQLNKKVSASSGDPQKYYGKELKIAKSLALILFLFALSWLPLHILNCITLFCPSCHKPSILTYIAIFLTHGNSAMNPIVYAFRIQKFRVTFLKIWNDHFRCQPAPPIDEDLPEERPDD

[3] = Cytotoxicity against human MOLM16 cells measured after 8 days; format: functional, cell-based, MOLM-16; details: MOLM16, 192 h
HCC515 = assay: Cytotoxicity against human HCC515 cells measured after 8 days; format: functional, cell-based; details: HCC515, 192 h
GTL 16 cell line = assay: Cytotoxicity against human GTL 16 cell line measured after 8 days; format: functional, cell-based; details: GTL 16, 192 h
LXF-289 cell line = assay: Cytotoxicity against human LXF-289 cell line measured after 8 days; format: functional, cell-based; details: LXF-289, 192 h
[4] = biological target: RAC-alpha serine/threonine-protein kinase (Homo sapiens) (UniProt P31749); assay: Inhibition of AKT1 (unknown origin) at 1 uM relative to control
Chain of RAC-alpha serine/threonine-protein kinase (Homo sapiens) (P31749 whole entry): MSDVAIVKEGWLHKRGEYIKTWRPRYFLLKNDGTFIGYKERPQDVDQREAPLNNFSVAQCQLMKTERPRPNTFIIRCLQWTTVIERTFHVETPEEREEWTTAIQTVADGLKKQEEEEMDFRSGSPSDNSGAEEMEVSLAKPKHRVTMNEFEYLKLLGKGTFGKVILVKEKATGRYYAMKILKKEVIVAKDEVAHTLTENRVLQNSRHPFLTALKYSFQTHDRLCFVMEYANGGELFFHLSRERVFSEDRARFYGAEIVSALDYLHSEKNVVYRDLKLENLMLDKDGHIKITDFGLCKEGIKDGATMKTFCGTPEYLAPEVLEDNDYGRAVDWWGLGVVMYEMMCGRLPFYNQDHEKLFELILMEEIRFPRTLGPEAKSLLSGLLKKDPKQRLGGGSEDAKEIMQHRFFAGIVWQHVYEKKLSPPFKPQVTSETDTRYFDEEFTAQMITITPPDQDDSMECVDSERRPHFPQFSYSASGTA

[5] = biological target: T2, Muscarinic acetylcholine receptor M2 (Homo sapiens) (UniProt P08172); assay: Displacement of [3H]AF-DX 384 from human recombinant M2 receptor at 10 uM after 60 mins by scintillation counting analysis relative to control
T2 sequence (whole entry): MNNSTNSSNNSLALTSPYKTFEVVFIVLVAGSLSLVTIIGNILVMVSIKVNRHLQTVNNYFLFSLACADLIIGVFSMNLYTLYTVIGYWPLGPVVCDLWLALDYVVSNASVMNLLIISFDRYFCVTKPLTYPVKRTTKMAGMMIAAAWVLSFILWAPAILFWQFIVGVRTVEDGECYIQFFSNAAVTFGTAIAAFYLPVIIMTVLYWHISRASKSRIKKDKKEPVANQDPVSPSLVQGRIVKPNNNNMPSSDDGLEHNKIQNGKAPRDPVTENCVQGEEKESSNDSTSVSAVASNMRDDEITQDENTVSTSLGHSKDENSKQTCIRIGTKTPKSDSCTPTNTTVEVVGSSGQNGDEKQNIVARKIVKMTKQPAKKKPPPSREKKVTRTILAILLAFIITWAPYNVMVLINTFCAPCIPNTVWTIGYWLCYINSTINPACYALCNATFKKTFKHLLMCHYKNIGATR

[6] = biological target: T3, ATPase family AAA domain-containing protein 2B (Homo sapiens, UniProt Q9ULI0); assay: Binding affinity to human partial length ATAD2B (Q955 to R1082 residues) expressed in bacterial expression system by BROMOscan assay
T3 sequence (Q9ULI0 whole entry): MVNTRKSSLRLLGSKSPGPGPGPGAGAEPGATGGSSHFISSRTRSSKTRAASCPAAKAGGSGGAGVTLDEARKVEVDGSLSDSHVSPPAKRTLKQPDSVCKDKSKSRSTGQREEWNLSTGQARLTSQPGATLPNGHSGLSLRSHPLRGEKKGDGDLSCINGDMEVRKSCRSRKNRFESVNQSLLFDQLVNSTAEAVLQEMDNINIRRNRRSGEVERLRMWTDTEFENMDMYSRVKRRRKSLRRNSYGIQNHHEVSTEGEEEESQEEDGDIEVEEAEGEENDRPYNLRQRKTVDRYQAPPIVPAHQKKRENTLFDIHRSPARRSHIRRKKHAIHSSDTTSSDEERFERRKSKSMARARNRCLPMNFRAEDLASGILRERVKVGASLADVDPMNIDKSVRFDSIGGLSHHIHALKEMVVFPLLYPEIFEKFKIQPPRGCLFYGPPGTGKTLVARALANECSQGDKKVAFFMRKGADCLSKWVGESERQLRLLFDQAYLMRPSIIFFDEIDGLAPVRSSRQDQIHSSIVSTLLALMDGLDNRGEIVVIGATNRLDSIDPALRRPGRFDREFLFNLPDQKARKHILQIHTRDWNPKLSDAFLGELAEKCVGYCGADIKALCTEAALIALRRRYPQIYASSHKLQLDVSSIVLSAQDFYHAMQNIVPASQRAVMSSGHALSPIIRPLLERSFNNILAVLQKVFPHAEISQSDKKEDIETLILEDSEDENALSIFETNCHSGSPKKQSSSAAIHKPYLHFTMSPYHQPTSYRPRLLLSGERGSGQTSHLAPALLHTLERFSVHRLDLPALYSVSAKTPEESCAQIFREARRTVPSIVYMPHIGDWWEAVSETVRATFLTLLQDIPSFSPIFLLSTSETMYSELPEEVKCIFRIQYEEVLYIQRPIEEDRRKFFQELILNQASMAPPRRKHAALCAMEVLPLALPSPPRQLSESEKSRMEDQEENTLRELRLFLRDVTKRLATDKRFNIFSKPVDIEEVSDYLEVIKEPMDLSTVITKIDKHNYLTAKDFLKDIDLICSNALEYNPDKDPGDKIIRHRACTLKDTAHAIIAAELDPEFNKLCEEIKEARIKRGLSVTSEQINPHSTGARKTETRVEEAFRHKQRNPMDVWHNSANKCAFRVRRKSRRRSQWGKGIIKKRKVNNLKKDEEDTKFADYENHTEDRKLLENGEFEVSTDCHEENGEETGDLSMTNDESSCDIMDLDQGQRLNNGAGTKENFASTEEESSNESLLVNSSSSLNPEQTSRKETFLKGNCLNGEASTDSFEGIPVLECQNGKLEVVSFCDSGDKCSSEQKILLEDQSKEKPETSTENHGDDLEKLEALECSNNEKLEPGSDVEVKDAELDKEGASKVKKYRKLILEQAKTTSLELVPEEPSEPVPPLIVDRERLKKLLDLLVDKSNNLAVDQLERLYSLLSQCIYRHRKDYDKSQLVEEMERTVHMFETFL

Rattus norvegicus = organism: Rattus norvegicus; assay: Displacement of [125I]alpha-dendrotoxin from rat brain voltage-gated K channel at 10 uM after 60 mins by scintillation counting analysis relative to control
NCI-H661 = assay: Cytotoxicity against human NCI-H661 cells measured after 8 days; format: functional, cell-based; details: NCI-H661, 192 h
[7] = biological target: Bromodomain-containing protein 4 (Homo sapiens, UniProt O60885); assay: Binding affinity to full length BRD4 short isoform (unknown origin) by BROMOscan assay
SNU-C1 = assay: Cytotoxicity against human SNU-C1 cells measured after 8 days; format: functional, cell-based; details: SNU-C1, 192 h

| Structure (SMILES) | IC50 (AMO1) [µM] | Activity [1] [%] | Activity [2] [%] | IC50 [3] [µM] | IC50 (HCC515) [µM] | IC50 (GTL 16 cell line) [µM] | IC50 (LXF-289 cell line) [µM] | inhibition [4] [%] | Activity [5] [%] | Kd [6] [µM] | Activity (Rattus norvegicus) [%] | IC50 (NCI-H661) [µM] | Kd [7] [µM] | IC50 (SNU-C1) [µM] |
| --- | --- | --- | --- | --- | --- | --- | --- | --- | --- | --- | --- | --- | --- | --- |
| C/C=C/Cn1cc(-c2ccc(C(=O)N3CCOCC3)cc2)c2cc[nH]c2c1=O | 20 | 8 | 10 | 9.59 | 20 | 20 | 20 | -2.1 | -7 | > 10 | 0 | 20 | 1.2 | 20 |
| C/C=C/Cn1cc(-c2ccc(C(C)(C)O)cc2OC)c2cc[nH]c2c1=O | 20 | 8 | 8 | 17.8 | 20 | 20 | 20 | 2.5 | -10 | > 10 | -1 | 20 | 0.58 | 20 |
| C/C=C/Cn1cc(-c2cc(OC)c(C(=O)N3CCOCC3)cc2OC)c2cc(C)[nH]c2c1=O | 2 | 12 | -4 | 2 | 2 | 2 | 2 | 1.5 | -8 | > 10 | 2 | 2 | > 10 | 2 |
| C/C=C/Cn1cc(-c2cc(OC)c(C(C)(C)O)cc2OC)c2cc(C)[nH]c2c1=O |  |  |  |  |  |  |  |  |  | > 10 |  |  | > 10 |  |
